This note sets out measurements from US20250002463A1, “NEW SALT FORMS OF AMILORIDE AND ITS DERIVATIVES FOR PHARMACEUTICAL USE” (PSOMRI Holding AB, priority 2021, published 2025).

The nature of data set [1]: Polymorphism: solid forms found in salt screen by HT-XRPD. The class given is physicochemical. The conditions noted are these: DME, THF; for salt polymorphs found from all three crystallization solvents: Example 2, MeOH; for Polymorphism: Example 1 salt screen in MeOH. How it is done: (§1) The precipitated solids were analyzed by high throughput X-ray powder diffractometry (HT XRPD). Liquid phases (both solutions and mother liquors) were evaporated at ambient conditions and the residual solids were analyzed by HT XRPD.
The salt screen experiments were carried out in methanol (MeOH), 1,2-dimethoxyethane (DME) and tetrahydrofuran (THF).

A short description of data set [2]: Physical stability under Accelerated Aging Conditions (AAC, 40° C./75% RH, 2 days), HT-XRPD. Particulars: for Physical Stability: AAC 40° C./75% RH, 2 days, re-analyzed by HT-XRPD; for physical stability upon exposure to AAC: Example 2; for physical stability upon exposure to AAC / Physically stable after AAC: 40° C./75% RH for 2 days; for Physically stable after AAC: Example 1.

Data set [3] can be described thus: Crystallinity of salt forms by HT-XRPD. The class given is physicochemical. Particulars: salt screen solid forms. How it is done: as §1
XRPD patterns were obtained using the Ardena T2 high-throughput XRPD set-up. The plates were mounted on a Bruker General Area Detector Diffraction System (GADDS) equipped with a VÅNTEC-500 gas area detector corrected for intensity and geometric variations. The calibration of the measurement accuracy (peaks position) was performed using NIST SRM1976 standard (Corundum).
No background subtraction or curve smoothing was applied to the XRPD patterns.

Consider `NC(=NC(=O)c1nc(Cl)c(N)nc1N)NCc1ccccc1.O=S(=O)(O)c1cccc2c(S(=O)(=O)O)cccc12` [NDS1], for which, in data set [1], the “salt polymorphs found from all three crystallization solvents” value (from here on “salt polymorphs found”) is listed as “only one salt polymorph”. Besides, in data set [2], the “Physical Stability” value is “Stable” and the “physical stability upon exposure to AAC” value is given as “physically stable”. In data set [3], the Crystallinity result is “Good”.

For `Cl.N/C(=N\C(=O)c1nc(Cl)c(N)nc1N)NCc1ccccc1` [Benzamil HCl SM1, reference compound], the Polymorphism entry in data set [1] is on record as “Yes”. Moreover, the “Physically stable after AAC” value in data set [2] is “No”.

Take `NC(=NC(=O)c1nc(Cl)c(N)nc1N)NCc1ccccc1.NC(=NC(=O)c1nc(Cl)c(N)nc1N)NCc1ccccc1.O=S(=O)(O)O` [SUL1]: the Polymorphism entry in data set [1] is given as “Yes”. Also, the “Physically stable after AAC” value in data set [2] was “physically stable and Yes”.

Take `CC(C)(C)C(=O)O.NC(=NC(=O)c1nc(Cl)c(N)nc1N)NCc1ccccc1` [PIV1]: the “salt polymorphs found” value in data set [1] is given as “only one salt polymorph”. Also, in data set [2], the “Physical Stability” value is listed as “Stable” and the “physical stability upon exposure to AAC” value is reported as “physically stable”. Further, the Crystallinity entry in data set [3] is reported as “Good”.

In the case of `NC(=NC(=O)c1nc(Cl)c(N)nc1N)NCc1ccccc1.O=C(O)c1cccnc1` [NIC1], the “salt polymorphs found” value in data set [1] is listed as “only one salt polymorph”. In data set [2], the “Physical Stability” value is on record as “Stable” and the “physical stability upon exposure to AAC” value was “physically stable”. Further, the Crystallinity entry in data set [3] was “Good”.

Turning to `CC(=O)O.NC(=NC(=O)c1nc(Cl)c(N)nc1N)NCc1ccccc1` [ACA2], in data set [1], the Polymorphism result was “Yes”. The “Physically stable after AAC” value in data set [2] is “physically stable and Yes”.

As for `NC(=NC(=O)c1nc(Cl)c(N)nc1N)NCc1ccccc1.O=C(O)c1ccccc1` [BNZ3], the Polymorphism entry in data set [1] is “Yes”. The “Physically stable after AAC” value in data set [2] was “physically stable and Yes”.

Regarding `N=C(NCc1ccccc1)NC(=O)c1nc(Cl)c(N)nc1N.O=C(O)c1cc(O)ccc1O` [GEN2], in data set [2], the “Physical Stability” value is recorded as “Stable” and the “physical stability upon exposure to AAC” value is listed as “physically stable”. The Crystallinity result in data set [3] was “Moderate”.

Turning to `NC(=NC(=O)c1nc(Cl)c(N)nc1N)NCc1ccccc1.O=C(O)C=Cc1ccccc1` [CIN2], in data set [2], the “Physical Stability” value is reported as “Stable” and the “physical stability upon exposure to AAC” value is reported as “physically stable”. Besides, the Crystallinity entry in data set [3] is on record as “Good”.

Consider `NC(=NCc1ccccc1)NC(=O)c1nc(Cl)c(N)nc1N.O=C(O)C=CC(=O)O` [FUM1], for which, in data set [2], the “Physical Stability” value is given as “Unstable”. Further, in data set [3], the Crystallinity result is on record as “Good”.

As for `Br.NC(=NC(=O)c1nc(Cl)c(N)nc1N)NCc1ccccc1` [HBR10], the “Physical Stability” value in data set [2] is “Unstable”. The Crystallinity result in data set [3] was “Moderate”.

Turning to `NC(=NC(=O)c1nc(Cl)c(N)nc1N)NCc1ccccc1.O=C(O)CNC(=O)c1ccccc1` [HIP1], the “Physical Stability” value in data set [2] is on record as “Unstable”. In data set [3], the Crystallinity entry is given as “Good”.

On to `CCCCC(=O)O.NC(=NC(=O)c1nc(Cl)c(N)nc1N)NCc1ccccc1` [VAL1], for which, in data set [2], the “Physical Stability” value is on record as “Stable” and the “physical stability upon exposure to AAC” value was “physically stable”. The Crystallinity entry in data set [3] is “Good”.

Regarding `CCCCCCCCCCCCCCCCCC(=O)O.NC(=NC(=O)c1nc(Cl)c(N)nc1N)NCc1ccccc1` [STE2], in data set [2], the “Physical Stability” value is listed as “Stable” and the “physical stability upon exposure to AAC” value is reported as “physically stable”. The Crystallinity result in data set [3] is reported as “Poor”.

In the case of `N=C(NCc1ccccc1)NC(=O)c1nc(Cl)c(N)nc1N.O=C(O)C(O)C(O)C(=O)O` [TAR1], the Polymorphism entry in data set [1] is “Unclear”. The results for the “Physically stable after AAC” value in data set [2] and in data set [2] (listed as TAR1 pc) were “physically stable” and “Yes”, respectively.

Take `CCCCCCCCCCCCCCCCCC(=O)O.NC(=NC(=O)c1nc(Cl)c(N)nc1N)NCc1ccccc1` [STE1]: in data set [2], the “Physical Stability” value is “Stable” and the “physical stability upon exposure to AAC” value was “physically stable”. The Crystallinity result in data set [3] was “Obtained as mixture”.

As for `NC(=NC(=O)c1nc(Cl)c(N)nc1N)NCc1ccccc1.O=C(O)C[C@H](O)C(=O)O` [MAL1], in data set [2], the “Physical Stability” value was “Stable” and the “physical stability upon exposure to AAC” value is on record as “physically stable”. The Crystallinity result in data set [3] is recorded as “Good”.

Take `NC(=NC(=O)c1nc(Cl)c(N)nc1N)NCc1ccccc1.O=S(=O)(O)CCS(=O)(=O)O` [EDY2]: in data set [2], the “Physical Stability” value was “Stable” and the “physical stability upon exposure to AAC” value was “physically stable”. The Crystallinity result in data set [3] is on record as “Good”.

With `NC(=NC(=O)c1nc(Cl)c(N)nc1N)NCc1ccccc1.O=C(O)CC(O)(CC(=O)O)C(=O)O` [CIT1], the “Physical Stability” value in data set [2] is given as “Unstable”. The Crystallinity entry in data set [3] is on record as “Moderate/Poor”.

With `NC(=NCc1ccccc1)NC(=O)c1nc(Cl)c(N)nc1N.O=S(=O)(O)c1ccc2ccccc2c1` [NSA4], in data set [2], the “Physical Stability” value is given as “Stable” and the “physical stability upon exposure to AAC” value is listed as “physically stable”. Further, the Crystallinity entry in data set [3] is listed as “Poor”.

Regarding `NC(=NC(=O)c1nc(Cl)c(N)nc1N)NCc1ccccc1.O=C(O)CCCCC(=O)O` [ADI1], the “Physical Stability” value in data set [2] was “Unstable”. Besides, in data set [3], the Crystallinity result is given as “Good”.

On to `N=C(NCc1ccccc1)NC(=O)c1nc(Cl)c(N)nc1N.O=S(=O)(O)c1ccc2ccccc2c1` [NSA1], for which the “Physical Stability” value in data set [2] is “Unstable”. Further, the Crystallinity entry in data set [3] was “Good”.

With `NC(=NC(=O)c1nc(Cl)c(N)nc1N)NCc1ccccc1.O=C(O)c1cc(O)ccc1O` [GEN3], the “Physical Stability” value in data set [2] is listed as “Unstable”. The Crystallinity result in data set [3] is given as “Moderate”.

Consider `N=C(NCc1ccccc1)NC(=O)c1nc(Cl)c(N)nc1N.O=C(O)C=CC(=O)O` [FUM2], for which, in data set [2], the “Physical Stability” value is listed as “Stable” and the “physical stability upon exposure to AAC” value is “physically stable”. In addition, the Crystallinity result in data set [3] is “Good”.
